Source: the NIST ThermoML archive (doi:10.1007/s10765-005-5567-5)

Assay: mn = molality of the nth substance listed, in mol/kg
Details: Liquid; for viscosity: Capillary tube (Ostwald / Ubbelohde) method; for thermal conductivity: Coaxial cylinder method

O=S(=O)([O-])[O-].[K+].[K+] [potassium sulfate] + O
Details | thermal conductivity, 10000 kPa [W/m/K] | thermal conductivity, 30000 kPa [W/m/K] | viscosity, 10 kPa [mPa·s] | viscosity, 20 kPa [mPa·s] | viscosity, 30 kPa [mPa·s]
397.25 K, m1 = 0.305 | – | – | – | 0.2531 | 0.2565
398.55 K, m1 = 0.0658 | – | – | 0.2289 | 0.2321 | 0.236
422.05 K, m1 = 0.407 | – | – | 0.2131 | 0.2154 | 0.2189
423 K, m1 = 0.499 | 0.678 | 0.69 | – | – | –
423.3 K, m1 = 0.782 | 0.671 | 0.684 | – | – | –
423.55 K, m1 = 0.305 | – | – | 0.204 | 0.2068 | 0.2096
423.6 K, m1 = 0.239 | 0.683 | 0.696 | – | – | –
423.85 K, m1 = 0.0658 | – | – | 0.1881 | 0.1926 | 0.196
425.45 K, m1 = 0.2055 | – | – | 0.1946 | 0.1974 | 0.2
446.85 K, m1 = 0.407 | – | – | 0.1811 | 0.184 | 0.1867
447.35 K, m1 = 0.0658 | – | – | 0.1613 | 0.1645 | 0.166
448.1 K, m1 = 0.782 | 0.665 | 0.681 | – | – | –
448.35 K, m1 = 0.2055 | – | – | 0.1679 | 0.1705 | 0.1732
448.55 K, m1 = 0.305 | – | – | 0.1735 | 0.1769 | 0.179
448.7 K, m1 = 0.239 | 0.678 | 0.691 | – | – | –
449.8 K, m1 = 0.499 | 0.672 | 0.686 | – | – | –
470.75 K, m1 = 0.407 | – | – | 0.1586 | 0.1605 | 0.1641
472.05 K, m1 = 0.0658 | – | – | 0.1403 | 0.1436 | 0.146
472.9 K, m1 = 0.499 | 0.659 | 0.676 | – | – | –
473.4 K, m1 = 0.239 | 0.665 | 0.681 | – | – | –
473.8 K, m1 = 0.782 | 0.652 | 0.671 | – | – | –
475.85 K, m1 = 0.305 | – | – | 0.1492 | 0.1521 | 0.1545
477.45 K, m1 = 0.2055 | – | – | 0.143 | 0.1456 | 0.1482
496.35 K, m1 = 0.0658 | – | – | 0.1244 | 0.1276 | 0.13
497.45 K, m1 = 0.2055 | – | – | 0.1294 | 0.1322 | 0.1348
498.3 K, m1 = 0.499 | 0.639 | 0.657 | – | – | –
498.5 K, m1 = 0.239 | 0.644 | 0.664 | – | – | –
498.55 K, m1 = 0.407 | – | – | 0.1388 | 0.1409 | 0.1444
498.6 K, m1 = 0.782 | 0.632 | 0.65 | – | – | –
499.95 K, m1 = 0.305 | – | – | 0.1332 | 0.1369 | 0.14
523.05 K, m1 = 0.2055 | – | – | 0.1162 | 0.1191 | 0.1219
523.2 K, m1 = 0.499 | 0.61 | 0.63 | – | – | –
523.3 K, m1 = 0.239 | 0.617 | 0.637 | – | – | –
523.85 K, m1 = 0.407 | – | – | 0.1248 | 0.1286 | 0.1307
523.9 K, m1 = 0.782 | 0.602 | 0.623 | – | – | –
524.45 K, m1 = 0.0658 | – | – | 0.1097 | 0.1135 | 0.116
527.35 K, m1 = 0.305 | – | – | 0.1185 | 0.1216 | 0.1243
541.55 K, m1 = 0.407 | – | – | 0.1171 | 0.12 | 0.1236
545.05 K, m1 = 0.0658 | – | – | 0.1008 | 0.1045 | 0.1072
547.9 K, m1 = 0.239 | 0.584 | 0.61 | – | – | –
548.2 K, m1 = 0.499 | 0.577 | 0.604 | – | – | –
548.45 K, m1 = 0.305 | – | – | 0.1087 | 0.1119 | 0.115
548.5 K, m1 = 0.782 | 0.57 | 0.598 | – | – | –
550.55 K, m1 = 0.2055 | – | – | 0.1039 | 0.1072 | 0.1105
571.55 K, m1 = 0.0658 | – | – | 0.0902 | 0.094 | 0.0972
573.2 K, m1 = 0.499 | 0.534 | 0.568 | – | – | –
573.2 K, m1 = 0.782 | 0.525 | 0.56 | – | – | –
573.35 K, m1 = 0.305 | – | – | 0.0976 | 0.1016 | 0.1035
573.8 K, m1 = 0.239 | 0.54 | 0.574 | – | – | –
574.35 K, m1 = 0.2055 | – | – | 0.094 | 0.0973 | 0.1014
575.25 K, m1 = 0.407 | – | – | 0.1021 | 0.1067 | 0.1102
